Assay results reported in PubChem BioAssay (NCI).
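Growth conditions: 96-well plates. Treatment: test compound, 48 hours, 5 concentrations. Analysis: linear interpolation between bracketing concentrations; unreached endpoints set to highest concentration. Definition used: TGI = concentration required for complete inhibition of growth.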

Assays:
Experiment in all cases: growth of human tumour cells (NCI), 48 h
[1] = system: U251 CNS
[2] = system: A498 renal
[3] = system: SK-MEL-5 melanoma
[4] = system: DU-145 prostate
[5] = system: SW-620 colon
[6] = system: CAKI-1 renal
[7] = system: LOX IMVI melanoma
[8] = system: HCT-116 colon
[9] = system: HL-60(TB) leukemia
[10] = system: HS 578T breast
[11] = system: BT-549 breast
[12] = system: SN12C renal

| SMILES | TGI [1] [µM] | TGI [2] [µM] | TGI [3] [µM] | TGI [4] [µM] | TGI [5] [µM] | TGI [6] [µM] | TGI [7] [µM] | TGI [8] [µM] | TGI [9] [µM] | TGI [10] [µM] | TGI [11] [µM] | TGI [12] [µM] |
| --- | --- | --- | --- | --- | --- | --- | --- | --- | --- | --- | --- | --- |
| N#Cc1cnn2c1n[n+]([O-])c1ccc(Cl)cc12 | 32.8 | 46 | 25 | 28.5 | 29.6 | 2.53 | 8.51 | 22.7 | 6.52 | > 24.7 | 25.4 | 20.7 |
| Fc1ccc(C(OCCN2CCC3CCC(C2)N3CCCc2ccccc2)c2ccc(F)cc2)cc1 (stereo not drawn) | 15.1 | 11.8 | 3.22 | 22.8 | 19.9 | 18.3 | 13.8 | 10.6 | 5.21 | 19.7 | 21.1 | 12.7 |
| CN(CCO)CC(=O)CC(O)(C(F)(F)F)C(F)(F)F | > 100 | > 100 | 31.8 | > 100 | > 100 | 90.3 | 86.3 | > 100 | 73.5 | 58.7 | > 100 |  |
| CCCCCCN(C(=O)Oc1ccccc1)C(C#N)c1ccccc1 (stereo not drawn) | > 100 | > 100 | > 100 | > 100 | > 100 | > 100 | > 100 | > 100 | > 100 | > 100 | > 100 | > 100 |
| Cc1c(-c2ccccc2)c(-c2ccc(OCCN(C)C)cc2)n2ccccc12 | 24.7 | 29.1 | 3.44 | 26.3 | 17.9 | 23.9 | 5.81 | 19 | 19.4 | 20.9 | 18.7 | 25.4 |
| O=C(Cc1ccccc1)N/N=C(/CCN1CCCC1)CC(c1ccccc1)c1c(O)c2ccccc2oc1=O (stereo not drawn) | > 100 | > 100 | > 100 | > 100 | > 100 | > 100 | 44.4 | > 100 | > 100 | > 100 | > 100 |  |
| CC1=NC(=Cc2ccc(Cl)cc2)C(=O)N1n1c(-c2ccccc2)nc2ccccc2c1=O |  | 63.4 | > 100 | > 100 | > 100 | 69.1 | > 100 | > 100 | 78.6 | 57.3 | > 100 | > 100 |
| Cc1sc2ncnc(NCCc3ccccc3)c2c1C | 26.7 | 29 | 12.2 | 70.9 | > 100 | 56.7 | 22.4 | 24.9 | 29.3 | 63.6 | 62.9 | 28.3 |
| COc1ccc(CSCc2cc(OC)c(OC)c(OC)c2)cc1 | > 100 | > 100 | > 100 | > 100 | > 100 | > 100 | > 31.6 | > 31.6 | > 100 | > 100 | > 100 | > 100 |
| CC1CCCc2c(-c3ccc(Cl)cc3)nc(N)c(C#N)c21 (stereo not drawn) | > 100 | 89 | 38.5 | > 100 | > 100 | > 100 | 68 | > 100 | > 100 | > 100 | 53.4 | > 100 |
| CC(=O)NNC=N/C(C#N)=C(\N)C#N | > 100 | > 100 | > 100 | > 100 | > 100 | > 100 | > 100 | > 100 | > 100 | > 100 | > 100 | > 100 |
| CN1CC=C(OP(=O)(NCc2ccccc2)N(CCCl)CCCl)CC1 (stereo not drawn) | > 100 | > 100 |  | > 100 | > 100 | > 100 | > 100 | > 100 | > 100 | > 100 | > 100 | > 100 |
| Cc1[nH]c2ncn(/N=C/c3ccccc3)c(=N)c2c1Cc1ccccc1 | > 100 | > 100 |  | > 100 | > 100 | > 100 | > 100 | > 100 | > 100 | > 100 | > 100 | > 100 |
| CCOC(=O)CCc1c(C(=O)OCC)[nH]c(/C=C2/NC(=O)C(C)=C2CC)c1C | 24.1 | 77.6 | 13.2 | 44.6 | > 100 | 80.2 | 21 | 28.1 | 25.7 | 95.3 | 6.19 | 37.9 |
